Experiments:
Assay type in all cases: physicochemical
[1] = HS-GC-MS quantification of headspace hexanal in PS80 solutions after storage; settings: 10% PS80, RL of 100 ppb
Procedure: (§1) Studies were performed to investigate oxidative degradation of PS20 and PS80 in aqueous solutions containing the antioxidants BHT or BHA. The following solutions were tested: • 1) polysorbate solutions of 10% (w/v) ± 0.02% (w/v) of the respective antioxidant, • 2) polysorbate solutions of 0.1% (w/v) ± 0.0002% (w/v) of the respective antioxidant. For solution 1), stabilized (containing the antioxidant BHT or BHA at a concentration of 0.2% (w/w)) and unstabilized (not containing any antioxidant) neat PS was diluted to a concentration of 10% (w/v) by adding 5 g of PS into a 50 mL volumetric flask and filling up to the 50 mL mark with H2O. The solution was stirred with a magnetic stirrer for about 20 minutes to ensure complete dissolution of PS. 5 ml of each solution was aliquoted into 6R vials. Each vial was closed with a stopper and a cap.
(§2) Throughout the experiments, the solutions were subjected to three different conditions as follows: "T0": stored at -20°C for 7 weeks, "H2O2": stored at 25°C and 60% humidity for 7 weeks in the presence of hydrogen peroxide (H2O2) at a concentration of 10% (w/w) based on the molar ratio of used antioxidant. "Air": stored at 40°C and 75% humidity for 7 weeks and exposed to air (needle in vial stopper for free air exchange during incubation).
GC-MS was used to quantify headspace hexanal levels for solutions of 10% PS (w/v) ± 0.02% (w/v) of the antioxidants BHT or BHA.
The following HS-GC-MS conditions were applied: Headspace oven: 10 min at 80°C, Column: Agilent HP-5MS, 30 m x 250 micro M x 0.25 micro M; GC oven: 3 min at 35°C, then 20°C/min to 320°C, then 10 min at 320°C; column flow: 1.3 mL/min; MS: Full scan, m/z = 35 - 300. As a reference standard aqueous toluene solutions with concentrations between 0.1 ppm and 1 ppm in 10 mL H2O were prepared and directly analyzed by HS-GC-MS.
1 mL of each sample was transferred into a headspace vial with a volume of 20 mL, closed, and analyzed directly.
Quantification was achieved by integration of the HS-GC-MS signals (TIC) and using a calibration curve obtained from the integrated HS-GC-MS signals (TIC) of the external reference toluene.
Tentative identification of degradants was performed by comparing the mass spectrum of each GC-MS signal against the NIST14 standard reference database.
The degradant most consistently identified by HS-GC-MS to show a value above the RL of 100 ppb was hexanal.

[2] = LC-UV-MS quantification of free fatty acids in polysorbate solutions after storage
Procedure: as §1, §2
LC-UV-MS was used to quantify FFA levels in solutions of 10% PS (w/v) ± 0.02% (w/v) of the antioxidants BHT or BHA. The FFAs lauric acid, myristic acid and palmitic acid were quantified for PS20-containing solutions and palmitic acid, stearic acid and oleic acid were quantified for PS80-containing solutions. The RL for all FFAs was 50000 ppb.
LC-UV-MS conditions were applied as in Example 2. Quantification of the FFAs was achieved by integration of the LC-MS signals at their corresponding ion trace (lauric acid = m/z 199.3; myristic acid = m/z 227.3; palmitic acid = m/z 255.3; stearic acid = m/z 283.3; oleic acid = m/z 281.3) in negative mode and using a calibration curve obtained from the integrated LC-MS signals of each corresponding ion trace of the external reference of lauric acid, myrisitic acid, palmitic acid, stearic acid and oleic acid. FFA reference standards in aqueous solutions at concentrations from 0.5 ppm to 5 ppm were prepared. All reference standard solutions were directly analyzed by LC-UV-MS.

[3] = LC-UV-MS quantification of 4HNE in PS80 solutions after storage; settings: 10% PS80; Air; 100-fold diluted; RL 50 micro M
Procedure: as §1, with “cap. […]” for “cap.”
LC-UV-MS was used to quantify 4HNE levels in solutions of 10% PS80 (w/v) ± 0.02% (w/v) of the antioxidants BHT or BHA. […]
Quantification of 4HNE was achieved by integration of the LC-UV signals (lambda = 220 nm) and using a calibration curve obtained from the integrated LC-UV signals (lambda = 220 nm) of the external reference 4HNE. As a reference standard aqueous 4HNE solutions with concentrations between 0.05 ppm and 1 ppm were prepared and directly analyzed by LC-UV-MS. […]

[4] = HPLC-FMA (fluorescence micelle assay), polysorbate concentration after storage; settings: diluted to target 0.04% PS (w/v)
Procedure: as §1
For solution 2), 50 micro L of the 10% (w/v) PS solutions were transferred into 6R vials and filled up with 4.95 mL H2O to a final concentration of 0.1% (w/v) PS.
as §2
HPLC FMA was used to measure the concentration of polysorbate in solutions of 10% PS20 ± 0.02% (w/v) of the antioxidants BHT or BHA, solutions of 10% PS80 (w/v) ± 0.02% (w/v) of the antioxidants BHT or BHA, and solutions of 0.1% PS80 (w/v) ± 0.0002% (w/v) of the antioxidants BHT or BHA. Samples were diluted to the target concentration of 0.04% PS (w/v) prior to analysis.
The following HPLC fluorescence detector conditions were applied: Column: knitted reaction coil L x I.D. 20mx 0.25mm, volume 1.0mL SUPELCO, ambient temperature; injection volume: 10 micro L; flow: 1.5 mL/min; isocratic 2min (A: 0.15M sodium chloride, 0.05 M L-histidine, pH = 6, 5%(v/v) acetonitrile, 5 micro M N-phenyl-1-naphtylamine (NPN), 15 ppm Brij® 35); FLD: lambda excitation = 350 nm, lambda emission = 420 nm, data mode: emission.
Quantification of each sample type was performed by using 10% T0 samples for preparation of an external calibration curve from 0.02% to 0.06% PS.
Empower 2 was used as software for quantification.
The assay is based on the uptake of the fluorescent dye NPN by surfactant micelles using flow injection analysis and subsequent fluorescence detection. The dye is present in the mobile phase. In the lipophilic surrounding in the inside of the micelles the fluorescent signal is 10-fold higher than in aqueous mobile phase. Therefore, the concentration of polysorbate can be measured according to the formation of micelles and the uptake of the dye by the subsequent increase of the signal intensity.

X = calculated fatty acid concentration in ppb, Lauric acid ([2]; 7 weeks, 0.02 % (w/v)) | X = calculated fatty acid concentration in ppb, Myristic acid ([2]; 7 weeks, 0.02 % (w/v)) | X = calculated fatty acid concentration in ppb, Oleic acid ([2]; 7 weeks, 0.02 % (w/v)) | X = calculated fatty acid concentration in ppb, Stearic acid ([2]; 7 weeks, 0.02 % (w/v)) | Structure (SMILES) | hexanal (headspace) ([1]; Air) | hexanal (headspace) ([1]; H2O2) | hexanal (headspace) ([1]; T0) | X = calculated fatty acid concentration in ppb, Lauric acid ([2]; PS20 - 10%, Air, RL 50000ppb) | X = calculated fatty acid concentration in ppb, Myristic acid ([2]; PS20 - 10%, Air, RL 50000ppb) | X = calculated fatty acid concentration in ppb, Oleic acid ([2]; PS80 - 10%, Air, RL 50000ppb) | X = calculated fatty acid concentration in ppb, Stearic acid ([2]; PS80 - 10%, Air, RL 50000ppb) | 4HNE measured [3] [micro M] | X= calculated concentration in % of the average of 2 injections (polysorbate) ([4]; PS20 - 10%, Air) [%] | X= calculated concentration in % of the average of 2 injections (polysorbate) ([4]; PS80 - 0.1%, H2O2, RL 0.02%) [%] | X= calculated concentration in % of the average of 2 injections (polysorbate) ([4]; PS80 - 10%, Air, RL 0.02%) [%]
 |  |  |  | COc1ccc(O)c(C(C)(C)C)c1 [BHA, butylated hydroxyanisole] | no hexanal could be detected | no hexanal could be detected | no hexanal could be detected | below 200000 ppb | around 50000 ppb | around 200000 ppb | around 60000 ppb | < 50 | ~0.04 | ~0.04 | ~0.04
below 200000 ppb | around 50000 ppb | around 100000 ppb | around 60000 ppb | Cc1cc(C(C)(C)C)c(O)c(C(C)(C)C)c1 [BHT, butylated hydroxytoluene] | no hexanal could be detected | no hexanal could be detected | no hexanal could be detected |  |  |  |  | < 50 | ~0.04 | ~0.04 | ~0.04

Reference: patent publication EP3586875A1, “STABILIZATION OF POLYSORBATE” (Lonza Limited, priority 2018, dated 2020)
